Data on 4 molecules can be found in article PMC10117637 (Frontiers in Pharmacology, 2023).

As a reminder, the Papp is the rate of passage across a membrane or cell layer, normalised by area and donor concentration. Lower therefore signals poor permeation. By Tmax is commonly meant the time at which the peak concentration occurs. For orientation: half-life means the time in which the quantity being followed falls by half. A higher half-life goes with slow decline.

For one data set, the system named is Caco-2 cells. Nature of the data set: Cell viability assay (MTT), nontoxic concentration. The class given is cell-based, human. The note with it: 48 h. As for the experimental part:
The cytotoxicity of EDM and DEDM was assessed in Caco-2 cells using the aforementioned MTT test. These alkaloids were produced as solutions in DMSO and then diluted in cell culture media. Inoculating Caco-2 cells (1 × 10^4cells/well) in 96-well plates with 200 μL of media. After additional 48 h of incubation with EDM and DEDM (final test alkaloids concentrations ranged from 0.4 to 200 μM, and DMSO was less than 0.05%), the medium was discarded. To each well, an aliquot of 190 μL freshly prepared DMEM (serum-free) having 10.0 μL MTT (5 mg/mL) was added. The medium in every well was then removed from the plate after a further 4 h at 37°C of incubation. In 100 μL of DMSO, the purple formazan product was dissolved. Using a microplate reader, the ratio of absorbance (treated to untreated cells) at 490 nm was employed to measure cell viability.

Data set [1] has as its system Caco-2 cell monolayers. The conditions noted are these: pH 7.4.
Method: (§1) The Center of Cellular Resources at the Chinese Academy of Sciences (Shanghai, China) provided the human colon adenocarcinoma cell line Caco-2, and the experiment utilized 15–30 generations of these cells. DMEM enriched with 15% FBS, 1% non-essential amino acids, 1% Penicillin-Streptomycin Solution (×100), and 1% sodium pyruvate was utilized to cultivate cells at 37°C in a humidified atmosphere of 5% CO2. The cells were separated from flasks when they achieved the anticipated confluence threshold (70%–80%), and they were then inoculated in 12-well plates at a density of 2–5 × 10^5 cells/cm^2 in a polycarbonate Transwell® (pore size: 0.4 µm; filter area: 1.12 cm^2). In the first week, the culture media was switched every 2 days.
(§2) Caco-2 monolayers were pre-cultured in HBSS for 15 min at 37°C after being rinsed two times with preheated Hanks' balanced salt solution (HBSS, pH = 7.4). The donor side was supplemented with DEDM (25, 50, and 100 μM) and EDM (2.5, 5, and 10 μM), and the receiver chamber was filled with the corresponding volume of HBSS medium. For 120 min, the plate was incubated at 37°C. At 0, 30, 45, 60, 90, and 120 min, a 0.5 mL aliquot of each receiver chamber’s sample was taken, and 0.5 mL of HBSS was added to keep the volume constant. By using high-performance liquid chromatography (HPLC), the samples were examined. The sample (300 μL) taken from the receiver chamber was mixed with 300 μL of acetonitrile, and the combination was centrifuged for 10 min at 13,000 rpm. Lastly, a 100 µL aliquot of the supernatant was injected into the HPLC for examination.
(§3) Two drugs were quantitatively determined using an Agilent 1,260 HPLC apparatus (United States). A C18 column (1.8 μm, 3.0 × 150 mm; Agilent Technologies, Santa Clara, CA, United States) was used for the separation, with a column temperature of 25°C. The mobile phase comprised both A (water) and B (acetonitrile). The ratio between A and B was 70: 30 with a flow rate of 1 mL per minute. For EDM or DEDM, 20 μL samples were injected and analyzed at 290 nm or 344 nm, respectively. Acetonitrile was used to create the standard stock solutions for EDM and DEDM, respectively. By serially diluting standard stock solutions with HBSS, working solutions were made. The effective concentrations were 0.04–2.5 μg/mL for EDM and 0.23–7.5 μg/mL for DEDM, respectively. These samples were stored at 4°C before being used.
(§4) Eqs 1, 2 were used to determine the apparent permeability coefficients (Papp) and efflux ratio (ER) of marker drugs: Papp=dQ/dtC0A (1) where dQ/dt is the cumulative transport rate (M/min), C0 is the initial concentration of each marker drug, and A is the surface area of the filters. ER=PappBL−AP/PappAP−BL (2)
(§5) Data for transport experiments are presented as the mean ± SD of six independent experiments.
The subject of data set [2] is Caco-2 cell monolayers. Briefly: Caco-2 cell transport assay (Papp, efflux ratio). The conditions noted are these: Caco-2 monolayers.
Method: as §1, §2, §3, §4, §5
Data set [3] can be described thus: Tissue distribution and PK after tail vein injection. The class given is in vivo, mice. Here is the method: The mixture was then transferred to a sterile centrifuge tube after being repeatedly ground for 30 min with a tiny amount of ordinary saline added. After that, saline was added and ultrasonically processed for 1 h. In a vacuum freeze drier, the suspension was freeze-dried for 30 h. To make the injection, the freeze-dried powder was ultimately redissolved in regular saline. After acclimatization, all mice were acclimated before being randomly placed into four groups of three each: EDM (H) group, EDM (L) group, DEDM (H) group, DEDM (L) group. […] Supernatant plasma from the collected sample was transferred into another tube and kept at −80°C until analysis after being centrifuged at 3,000 rpm for 10 min. Immediately after blood was obtained, the mice were dissected. Saline was injected into the heart until the liver turned white. […] The calibration standards, tissue samples, and plasma samples were pretreated with acetonitrile for protein precipitation. […] To remove the denatured protein, the mixture was vortexed for 1 min and then centrifuged at 16,500 rpm for 10 min. The supernatant was finally injected into the LC-MS/MS in an aliquot of 100 µL for analysis. […] Using an isocratic elution, the EDM and DEDM were analyzed. […] With a flow rate of 0.3 mL/min, the ratio between A and B was 20: 80 for 4 min. The column temperature was kept at 35°C. Prior to injection, samples were transferred in an auto-sampler at a temperature of 4°C and 5 µL was the injection volume. […] The ion source was electrospray ionization (ESI) and adopts positive ion mode. The scan mode was multiple reaction monitoring (MRM). The operating conditions for the EDM and DEDM were 4000 V capillary voltage. […] Acetonitrile was used to prepare standard stock solutions for each type of EDM and DEDM individually. By diluting the standard stock solutions serially with acetonitrile, working standards for the EDM and DEDM were made. The calibration curve samples were acquired by spiking the series working standard solutions (10 μL) into a tube and evaporating the solvent, and then adding blank mouse tissue homogenate or plasma (100 μL). […] DEDM is used as an internal standard compound when detecting EDM. Meanwhile, when DEDM is detected, EDM is used as the internal standard compound. The final concentration of the internal standard compound is 10 ng/mL. […] For the Non-compartmental PK analysis, Thermo Kinetica (Version 5.0, Thermo Electron Corporation, Waltham, MA) was employed. Based on observed data, the time when the maximum tissue concentration was reached (Tmax) and the maximum tissue concentration (Cmax) were assessed. […] Additionally, the mean residence time (MRT) was computed. PK parameters are reported as the mean of […]. Linear and non-linear regressions were analyzed in Microsoft Excel 2016® (United States).

Details of data set [4]: method as in Lin et al., 2012. The conditions noted are these: ref Lin et al., 2012; cited from earlier work.
The next data set can be described thus: in vitro. The conditions noted are these: human, Caco-2, pH 7.4.

Method for in vitro: as §1, §2, §3, §4, §5

In the data set with Caco-2 cells (Caco-2 cells, MTT), `O=c1c2cccc(O)c2nc2n1CCc1c-2[nH]c2ccccc12` [1-HRUP, 1-hydroxyrutaecarpine] gave a Nontoxic concentration of 100 µM. The Papp in the data set on Caco-2 cell monolayers [1] was not below 1 ×10⁻⁶ cm/s. Moreover, the “bidirectional transport comparison, secretory (basolateral→apical) vs absorptive (apical→basolateral) permeability” value in the data set with Caco-2 cell monolayers [2] is recorded as “nearly comparable”.

The molecule `C[n+]1c2n(c(=O)c3ccccc31)CCc1c-2[nH]c2ccccc12` [dehydroevodiamine] displayed a Nontoxic concentration in the data set on Caco-2 cells (human) of 100 µM. For the same molecule, the AUC0-t in data set [3] (Kindy, 10 mg/kg tail vein, mice, average) was 1.87 µg·h/g. For the same molecule, the “time to maximum plasma concentration (Cmax)” value in data set [3] (mouse, in vivo) is given as not above 15 min. For the same molecule, the Tmax is 45 min in data set [3] (mouse, in vivo, iv, 5 mg/kg); 15 min in data set [3] (mouse, in vivo, iv, 10 mg/kg, Tmax); 15 min in data set [3] (mouse, in vivo, time to peak concentration in different tissues). In data set [3] (mouse, in vivo, iv, Lung, 5 mg/kg tail vein, mice, average), this molecule gave a half-life of 107 min. Moreover, the oral bioavailability in data set [4] is on record as 15.35%. This molecule also gave a Papp at 120 min in the data set “in vitro” of 10 ×10⁻⁶ cm/s. Besides, in the data set on Caco-2 cell monolayers [2], the “bidirectional transport comparison, secretory (basolateral→apical) vs absorptive (apical→basolateral) permeability” value was “nearly comparable”. Besides, in the data set with Caco-2 cell monolayers [2] (from Papp level), the permeability class result is “high permeability”.

In turn, `COc1ccc2c(OC)c3ccoc3nc2c1` [EVT, evolitrine] displayed a Nontoxic concentration in the data set with Caco-2 cells (human) of 100 µM. The molecule further returned a Papp at 120 min in “in vitro” of approximately 10 ×10⁻⁶ cm/s. Moreover, the “bidirectional transport comparison, secretory (basolateral→apical) vs absorptive (apical→basolateral) permeability” value with Caco-2 cell monolayers [2] was “nearly comparable”.

On to `O=c1c2ccccc2nc2n1CCc1c-2[nH]c2ccccc12` [RUP, rutaecarpine], for which the Nontoxic concentration in the data set on Caco-2 cells (human) came to 100 µM. This molecule registered a Papp at 120 min in the data set “in vitro” not below 1 ×10⁻⁶ cm/s. The “bidirectional transport comparison, secretory (basolateral→apical) vs absorptive (apical→basolateral) permeability” value in the data set with Caco-2 cell monolayers [2] is listed as “more than twice as high in the secretory direction”.
